Data taken from patent US7241611B2, “Methods for synthesis of holo-photoactive yellow protein” (Universiteit Gent, priority 2002, dated 2007).
Read-outs that look alike come from different tables or passages of the source.

What was measured:
[1] = system: tyrosine ammonia lyase (TAL) from Rhodobacter capsulatus; type: biochemical; details: for pH optimum of activity (TAL with L-tyrosine, PAL with L-phenylalanine): pH 6
Experimental: Both activities were followed by the following spectrophotometric assay (adapted from Rösler et al. (1997)): PAL activity was assayed by following cinnamic acid formation at 280 nm using a double beam spectrophotometer (Uvikon, Kontron, Herts, United Kingdom) in 10 mM Tris buffer at 35° C. The pH optimum was determined between the pH values 6-10. The substrate concentrations were varied between 5 mM and 0.2 mM. TAL activity was assayed by monitoring p-hydroxycinnamic acid formation at 310 nm and 35° C. The substrate concentration was varied between 2 mM and 0.01 mM. All reactions were performed in a total volume of 1 ml.
FIG. 3 presents Lineweaver-Burk plots for the two substrates at their respective pH optimum.
Since PAL and TAL sequences show significant homology to histidine ammonia lyases (HAL), which are common enzymes in bacteria, we also tested L-histidine as a substrate for the recombinant enzyme.

[2] = biological target: PAL-1 isozyme from parsley (Petroselinum crispum) (Petroselinum crispum, UniProt P24481); details: cited from earlier work
[3] = biological target: T1, PAL/TAL enzyme from the monocot Zea mays (Zea mays, UniProt Q8VXG7); details: pH 8.7; cited from earlier work
T1 sequence (Q8VXG7 whole entry): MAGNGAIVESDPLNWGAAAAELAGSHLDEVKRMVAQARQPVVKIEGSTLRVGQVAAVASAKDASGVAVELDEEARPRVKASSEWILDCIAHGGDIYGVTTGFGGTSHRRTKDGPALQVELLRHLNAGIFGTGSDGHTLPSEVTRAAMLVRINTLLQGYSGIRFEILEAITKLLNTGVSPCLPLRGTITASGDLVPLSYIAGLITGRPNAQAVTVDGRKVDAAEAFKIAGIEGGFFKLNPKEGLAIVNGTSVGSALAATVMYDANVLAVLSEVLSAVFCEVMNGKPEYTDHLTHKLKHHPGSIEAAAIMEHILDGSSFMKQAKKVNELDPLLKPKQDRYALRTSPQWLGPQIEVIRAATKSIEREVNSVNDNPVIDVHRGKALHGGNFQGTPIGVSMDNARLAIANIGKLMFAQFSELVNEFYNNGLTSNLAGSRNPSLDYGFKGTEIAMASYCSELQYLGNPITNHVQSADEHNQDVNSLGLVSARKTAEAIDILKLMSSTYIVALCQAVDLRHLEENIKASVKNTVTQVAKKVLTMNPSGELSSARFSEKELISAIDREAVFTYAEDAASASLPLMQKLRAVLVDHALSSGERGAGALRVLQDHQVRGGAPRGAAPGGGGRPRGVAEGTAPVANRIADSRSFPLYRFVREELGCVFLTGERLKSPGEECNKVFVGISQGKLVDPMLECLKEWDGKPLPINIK

[4] = biological target: T1, PAL/TAL enzyme from the monocot Zea mays; experiment: Kinetic parameters of the PAL/TAL enzyme from maize (Rösler et al., 1997); type: biochemical; details: pH 8.7
[5] = Laser flash photolysis, photocycle kinetics of PYP; design: species or system Halorhodospira halophila; details: flash 440 nm, universal buffer pH 8.0
Experimental: The laser flash photolysis and spectroscopy apparatus and the methods used for data analysis were as previously described (Meyer et al., 1987). The PYP sample was dialysed against a universal buffer (20 mM MES, 20 mM HEPES, and 20 mM glycine, pH 8.0) prior to the experiment. We used 1 ml samples, with an absorbance at 445 nm of approximately 0.2, for the kinetic measurements. By flashing the PYP sample with laser light of 440 nm, we could determine the kinetics of the light-induced absorbance changes. FIGS. 9a and 9b show the I1→I2 bleach reaction and the I2→P recovery of our in vivo formed holo-PYP. It can be seen that after a flash with 440 nm light, the PYP went through a normal photocycle. […] The rate of recovery was 7.2 s^−1, compared to 6.3 s^−1 for wild-type and chemically reconstituted PYP (Meyer et al., 1987; Genick et al., 1997). […] Since this is different from the 3.4 ms^−1 reported by Genick et al. (1997), we repeated the experiment under our conditions with native PYP and found the rate to be 1.3 ms^−1. This is approximately the same as what we measured with our recombinant PYP.

[6] = reported by Genick et al. (1997); cited from earlier work

## N[C@@H](Cc1c[nH]c2ccccc12)C(=O)O [L-tryptophan]
[1]; up to a 5 mM concentration
  activity as substrate: no activity was detected

## N[C@@H](Cc1ccc(O)cc1)C(=O)O [L-Tyrosine, L-tyrosine]
[2]
  kcat: 0.3 s⁻¹
[1]
  pH optimum of activity (TAL with L-tyrosine, PAL with L-phenylalanine): 8.5
[3]
  Km: 19 µM
  kcat: 0.9 s⁻¹

## N[C@@H](Cc1c[nH]cn1)C(=O)O [L-histidine]
[1]; spectrophotometric assay of Schwede et al. (1999)
  activity as substrate (histidine ammonia lyase activity): could not detect any activity

## N[C@@H](Cc1ccccc1)C(=O)O [L-Phenylalanine, L-phenylalanine]
[2]
  Km: 17.2 µM
  kcat: 22 s⁻¹
[1]
  fold higher Km for L-Phe than for L-Tyr: 80 fold
  pH optimum of activity (TAL with L-tyrosine, PAL with L-phenylalanine): 9.4
[4]
  fold higher Km value for L-Phe compared to L-Tyr: 15 fold
[3]
  Km: 270 µM
  kcat: 10 s⁻¹

B1: recombinant PYP: holo-photoactive yellow protein formed in vivo in Escherichia coli with TAL, pCL and pyp genes (protein, UniProt P16113 1-125, looked up)
Photoactive yellow protein: MEHVAFGSEDIENTLAKMDDGQLDGLAFGAIQLDGDGNILQYNAAEGDITGRDPKQVIGKNFFKDVAPCTDSPEFYGKFKEGVASGNLNTMFEYTFDYQMTPTKVKVHMKKALSGDSYWVFVKRV
modifications: recombinant holo form, expressed in E. coli
[5]
  rate constant of the bleach (I1→I2): 1.6 ms^−1

B2: wild-type PYP: wild-type Halorhodospira halophila photoactive yellow protein (protein, UniProt P16113 1-125, looked up)
Photoactive yellow protein: B1 Photoactive yellow protein
modifications: holo form with chromophore
[5]
  rate constant of the bleach (I1→I2): 1.3 ms^−1

B3: chemically reconstituted PYP: recombinant apo-PYP with the chromophore chemically attached (Genick et al., 1997) (protein, UniProt P16113 1-125, looked up)
Photoactive yellow protein: B1 Photoactive yellow protein
modifications: chemically attached chromophore
[6]
  rate constant of the bleach (I1→I2): 3.4 ms^−1
